For experiment [1], the system named is RANTES induced chemotaxis of THP-1 cells. The experiment is described as follows: RANTES chemotaxis assay. Particulars: Homo sapiens, 2 nM RANTES as chemoattractant. It is filed as cell-based. As for the experimental part: (§1) c) hMCP-1 Mediated Chemotaxis and RANTES Assay.
(§2) In vitro chemotaxis assays were performed using either the human monocytic cell line THP-1 or peripheral blood mixed monocytes obtained from fresh human blood purified by erythrocyte sedimentation followed by density gradient centrifugation over 9.6% (w/v) sodium metrizoate and 5.6% (w/v) polysaccharide, density 1.077 g/ml (Lymphoprep™ Nycomed). Cell migration through polycarbonate membranes was measured by enumerating those passing through either directly by Coulter counting or indirectly by use of a colourimetric viability assay measuring the cleavage of a tetrazolium salt by the mitochondrial respiratory chain (Scudiero D. A. et al. 1988, Cancer Res., 48, 4827-4833).
(§3) Chemoattractants were introduced into a 96-well microtiter plate which forms the lower well of a chemotaxis chamber fitted with a PVP-free 5 μm poresize polycarbonate adhesive framed filter membrane (NeuroProbe MB series, Cabin John, Md. 20818, USA) according to the manufacturer's instructions. The chemoattractant was diluted as appropriate in synthetic cell culture medium, RPMI 1640 (Gibco) or supplemented with 2 mM glutamine and 0.5% BSA, or alternatively with HBSS with Ca2+ and Mg2+ without Phenol Red (Gibco) plus 0.1% BSA. […] The plate was incubated at 37° C. for 3 h and the absorbance of the soluble formazan product was read on a microtitre plate reader at 450 nm. […]

The target of the next experiment is T1, MCP-1 receptor B (CCR2B) (Homo sapiens, UniProt P41597).
T1 construct: expressed in transfected cells; host or cells: CHO-K1 (clone 7, CHO-CCR2B), membrane fragments
T1 sequence (P41597 1-360 isoform P41597-2): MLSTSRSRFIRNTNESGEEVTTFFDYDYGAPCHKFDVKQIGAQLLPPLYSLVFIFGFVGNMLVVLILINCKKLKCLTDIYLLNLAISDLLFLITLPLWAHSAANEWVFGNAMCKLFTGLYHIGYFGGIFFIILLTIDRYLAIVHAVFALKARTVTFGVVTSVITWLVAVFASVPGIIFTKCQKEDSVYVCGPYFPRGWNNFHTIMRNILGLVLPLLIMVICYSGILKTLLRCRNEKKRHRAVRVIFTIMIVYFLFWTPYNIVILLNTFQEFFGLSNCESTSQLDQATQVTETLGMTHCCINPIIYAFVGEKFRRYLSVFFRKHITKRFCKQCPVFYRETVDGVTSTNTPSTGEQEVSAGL
The experiment is described as follows: hMCP-1 receptor-binding assay. The source says:
a) hMCP-1 Receptor-binding Assay i) Clonning and expression of hMCP-1receptor
The MCP-1 receptor B (CCR^2B) cDNA was cloned by PCR from THP-1 cell RNA using suitable oligonucleotide primers based on the published MCP-1 receptor sequences (Charo et al., 1994, Proc. Natl. Acad Sci. USA, 91, 2752). The resulting PCR products were cloned into vector PCR-II™ (InVitrogen, San Diego, Calif.). Error free CCR2B cDNA was subcloned as a Hind III-Not I fragment into the eukaryotic expression vector pCDNA3 (InVitrogen) to generate pCDNA3/CC-CKR2A and pCDNA3/CCR2B respectively.
Linearised pCDNA3/CCR2B DNA was transfected into CHO-K1 cells by calcium phosphate precipitation (Wigler et al., 1979, Cell, 16, 777). Transfected cells were selected by the addition of Geneticin Sulphate (G418, Gibco BRL) at 1 mg/ml, 24 hours after the cells had been transfected. Preparation of RNA and Northern blotting were carried out as described previously (Needham et al., 1995, Prot. Express. Purific., 6, 134). CHO-K1 clone 7 (CHO-CCR^2B) was identified as the highest MCP-1 receptor B expressor. […]
ii) Preparation of membrane fragments […]
^125I MCP-1 was prepared using Bolton and Hunter conjugation (Bolton et al., 1973, Biochem. J., 133, 529; Amersham International plc]. Equilibrium binding assays were carried out using the method of Ernst et al., 1994, J. Immunol., 152, 3541. Briefly, varying amounts of ^125I-labeled MCP-1 were added to […] of purified CHO-CCR2B cell membranes in […] of Binding Buffer. After 1 hour incubation at room temperature the binding reaction mixtures were filtered and washed 5 times through a plate washer (Packard Harvester Filtermate™ 196). Scintillation fluid (25 μl, Microscint™-20, a high efficiency liquid scintillation counting cocktail for aqueous samples) was added to each well and the plate was covered with plate sealer and counted (Packard Top Count™). […] Non-specific binding was determined by the inclusion of a 200-fold molar excess of unlabelled MCP-1 in the reaction. […]

In experiment [2] the test system is hMCP-1 mediated chemotaxis of THP-1 cells. Nature of the experiment: hMCP-1 mediated chemotaxis assay. It is filed as cell-based, human. As for the experimental part:
as §1, §2, §3

Another experiment concerns THP-1 cells. Nature of the experiment: MCP-1 mediated calcium flux in THP-1 cells. The class given is cell-based, human. Particulars: stimulation of THP-1 cells with hMCP-1, approximate, from dose response curves; read-out: EC50 for transient rise in [Ca2+]i. As for the experimental part:
b) MCP-1 Mediated Calcium Flux in THP-1 Cells
The human monocytic cell line THP-1 was grown in a synthetic cell culture medium RPMI 1640 supplemented with 10% foetal calf serum, 2 mM glutamine and Penicillin-Streptomycin (at 50 μg streptomycin/ml, Gibco BRL). THP-1 cells were washed in HBSS (lacking Ca^2+ and Mg^2+) +1 mg/ml BSA and resuspended in the same buffer at a density of 3×10^6 cells/ml. The cells were then loaded with […]-FURA-2/AM for 30 min at 37° C., washed twice in HBSS, and resuspended at 1×10^6 cells/ml. […] The cuvette was placed in a fluorescence spectrophotometer (Perkin Elmer, Norwalk, Conn.) and preincubated for 4 min at 37° C. with stirring. Fluorescence was recorded over 70 sec and cells were stimulated by addition of hMCP-1 to the cuvette after 10 sec. [Ca^2+]i was measured by excitation at 340 nm and 380 nm alternately and subsequent measurement of the intensity of the fluorescence emission at 510 nm.
where the Kd for FURA-2 Ca^2+ complex at 37° C. was taken to be […]. Rmax is the maximal fluorescence ratio determined after addition of […] lonomycin, Rmin is the minimal ratio determined by the subsequent addition of a Ca^2+ free solution containing 5 mM EGTA, and Sf2/Sb2 is the ratio of fluorescence values at 380 nm excitation determined at Rmin and Rmax, respectively. […]
On the technique in general: Calcium assays in cells follow changes in intracellular calcium, usually with a dye or a luminescent sensor.

From patent US6479527B1, “Bicyclic pyrrole derivatives as MCP-1 inhibitors” (AstraZeneca UK Limited, priority 1998, dated 2002) come the findings set out here.

Like-named read-outs stand apart in the source and are kept apart here.

Take `O=C(O)c1cc2sccc2n1Cc1ccc(Cl)c(Cl)c1` [Compound No. 8, 4-(3,4-Dichlorobenzyl)thieno[3,2-b]pyrrole-5-carboxylic acid]: the IC50 (as a rule, the concentration at which inhibition is half-maximal) in experiment [1] stood at 2660 nM.

As to `Nc1cccc(-c2cc3c(cc(C(=O)O)n3Cc3ccc(Cl)c(Cl)c3)s2)c1` [Compound No. 13, 2-(3-Aminophenyl)-4-(3,4-dichlorobenzyl)thieno[3,2-b]pyrrole-5-carboxylic acid], the IC50 at MCP-1 receptor B (CCR2B) (competition with 100 pM labelled MCP-1, CHO-CCR2B cell membranes, read-out: IC50 in the hMCP-1 receptor binding assay) came out at 8300 nM.

`O=C(O)c1cc2occc2n1S(=O)(=O)c1ccc(Cl)c(Cl)c1` [Compound No. 20, 4-(3,4-Dichlorobenzenesulfonyl)furo[3,2-b]pyrrole-5-carboxylic acid] gave an IC50 in experiment [2] (Homo sapiens, 1 nM MCP-1 as chemoattractant, THP-1 cells) of 1660 nM.

For “MCP-1: Monocyte Chemoattractant Protein-1, a C—C chemokine; ligand of the CCR2 receptor”, in the experiment with MCP-1 receptor B (CCR2B) (membrane fragments from CHO-CCR2B cells, cold competition with 125I-labeled MCP-1, read-out: IC50 of MCP-1 binding to CCR2B), the IC50 worked out at 0.11 nM. Also, in the experiment with MCP-1 receptor B (CCR2B) (membrane fragments from CHO-CCR2B cells, equilibrium binding), the Kd – broadly, the constant that tells how readily two partners part at equilibrium – came out at 0.12 nM. Moreover, the EC50 (in general, the concentration that produces a half-maximal response) in the experiment on THP-1 cells was roughly 2 nM. In experiment [2] (hMCP-1 as chemoattractant, concentration dependent cell migration), the “concentration of maximal cell migration (biphasic response)” value is 0.5-1.0 nm.
